Patent US20080227809A1, “Arylalkylamine Vanadium (V) Salts for the Treatment and/or Prevention of Diabetes Mellitus” (GENMEDICA THERAPEUTICS SL, priority 2004, published 2008)

Assays:
isolated rat adipocytes = assay: glucose transport (2-deoxyglucose uptake) in isolated rat adipocytes; format: cell-based; details: for stimulation of glucose transport at low concentration compared with A and B vanadium salts: 10 μM; for stimulation of glucose transport at low concentration compared with A and B vanadium salts / maximal stimulatory effect on glucose transport, compounds compared: vanadium salts; for maximal stimulatory effect on glucose transport, compounds compared: FIG. 6B; for stimulatory effect on glucose transport in the presence of semicarbazide: 1 mM semicarbazide (SSAO inhibitor)
Protocol: In order to determine whether salts formed by vanadate and benzylamine could produce an insulin mimetic effect, the effect of increasing concentrations of hexaquis(benzylammonium) decavanadate on glucose transport activity in isolated rat adipocytes was tested. Hexaquis(benzylammonium) decavanadate induced the stimulation of glucose transport which was perceptible from concentrations of 0.5 μM, with a maximal effect observed 2.5 μM and the semimaximal effect above 1 μM. […] The maximum effect provoked by incubation with hexaquis(benzylammonium) decavanadate was greater than that produced by the presence of benzylamine and vanadate in combination (FIG. 1). […] In similar assays, the activity of hexaquis(benzylammonium) decavanadate, pentaquis(benzylammonium) decavanadate and tetraquis(benzylammonium) decavanadate on glucose transport activity in isolated rat adipocytes were analyzed.
To determine the possible insulin mimetic effect of certain vanadium arylalkylamines, the capacity of these compounds to enhance glucose transport in isolated rat adipocytes was tested. Adipose cells from Wistar rats were incubated for 45 minutes in basal conditions (Basal) or in the presence of 100 nM insulin (Ins), and different concentrations of. hexaquis(benzylammonium) decavanadate (B6V10) in the absence or in the presence of 1 mM semicarbazide (SCZ). Subsequently, 2-DG transport was measured over a 5 min. interval.
The effects of the three tested compounds (B6V10, B5V10 and B4V10) were compared. Adipose cells from Wistar rats were incubated for 45 minutes in basal conditions (Basal) or in the presence of 100 nM insulin (Ins), and different concentrations of. decavanadate (V10), hexaquis(benzylammonium) decavanadate (B6V10), pentaquis(benzylammonium) decavanadate (B5V10) or tetraquis(benzylammonium) decavanadate (B4V10) in the absence or in the presence of 1 mM semicarbazide (SCZ). 2-DG transport was measured over 5 min. intervals. […] The stimulation of all three compounds on glucose transport was blocked in the presence of semicarbazide.
In additional experiments, compounds shown in FIG. 6A (named 2-(4-fluoro-phenyl)-ethylamine (compound A), 3-phenyl-propylamine (compound B), 4-fluoro-benzylamine (compound C) and 4-phenyl-butylamine (compound D)) were assessed using the experimental methods set forth above for the capacity to stimulate 2-DG uptake in isolated rat adipocytes. Adipose cells from Wistar rats were incubated for 45 minutes in basal conditions (Basal) or in the presence of 100 nM insulin (Ins), and different concentrations of vanadium salts of 2-(4-fluoro-phenyl)-ethylamine (compound A), 3-phenyl-propylamine (compound B), 4-fluoro-benzylamine (compound C) and 4-phenyl-butylamine (compound D). 2-DG transport was measured over 5 min.
(§1) The effects of incubation with semicarbazide or phosphatidylinositol 3-kinase inhibitors were also investigated. Adipose cells were incubated with B6V10 (25 μM, 45 min) in the absence or presence of wortmannin (2 μM, 45 min), LY294002 (10 μM, 45 min) or semicarbazide (1 mM, 45 min) and thereafter 2-deoxyglucose uptake was determined during 5 min. Activation of protein kinase B phosphorylation induced by B6V10 was blocked by semicarbazide and it was not observed by decavanadate. In addition, phosphatidylinositol 3-kinase inhibitors wortmannin and LY294002 blocked B6V10-induced glucose transport (FIG. 7E).

[1] = test system: streptozotocin-induced diabetic rats with undetectable circulating insulin; details: 2.5 μmol/kg subcutaneous by osmotic minipumps, streptozotocin 100 mg/kg
Protocol: Male Wistar rats weighting 180-220 g were purchased from Harlan (Interfauna Ibèrica S.A., Spain). Diabetes was induced by a single intraperitoneal injection of a freshly prepared solution of streptozotocin (in some studies the dose was 45 mg/kg body weight and in some others 100 mg/kg body weight dissolved in 50 mM citrate buffer, pH 4.5). Only diabetic animals with glycemia above 300 mg/dl were used. The animals were housed in animal quarters at 22° C. with a 12 h light/12 h dark cycle and were fed ad libitum. All procedures used were approved by the animal ethical committee of the University of Barcelona, Spain.
Osmotic minipumps delivering B6V10 (2.5 μmol/kg body wt/day) or decavanadate (2.5 μmol/kg body wt/day) were implanted subcutaneously in diabetic rats anaesthetised by ketamine hydrochloride (95 mg/kg) and xylasine (10 mg/kg). […] Glycemia was measured on arterio-venous blood collected from the tail vessels at 09:00 am for two weeks, before the administration of vanadate. Insulin concentrations were determined before and after treatment. In another set of experiments, B6V10 was orally administered at a single dose of 5 μmol/kg/day during the first week and 10 μmol/kg/day during 2 additional weeks by gastric gavage. A control group received the corresponding decavanadate salt in the absence of benzylamine. At the end of the treatment, animals were sacrificed and the liver, fat pad, heart and lung were kept at −80° C. and the plasma at −20° C. until their use for in vitro analysis.
In glucose tolerance tests and in chronic treatments, circulating glucose concentrations were determined by a rapid glucose analyser (Accutrend® Sensor Comfort, Roche, Basel. Switzerland). Plasma insulin (IRI) concentration was determined by ELISA method using a kit obtained from Crystal Chem. Inc. (Downers Grove, Ill.).
To this end, rats were made diabetic by the injection of a large dose of streptozotocin (100 mg/kg) that eliminates β-pancreatic insulin content.

[2] = test system: streptozotocin-induced diabetic rats; assay: chronic oral treatment, glycemia of streptozotocin (45 mg/kg) diabetic rats; format: in vivo, rat; details: for effect on glycemia: daily oral administration, 17 days
Protocol: The effect of the oral administration of hexaquis(benzylammonium) decavanadate on glycemia from diabetic rats was also studied. Diabetes was induced in rats by intravenous administration of streptozotocin, and subsequently, a hexaquis(benzylammonium) decavanadate or sodium decavanadate unique dose was administered to the rats. […] After seven days of treatment, the dose was increased at 10 μmol/kg/day which was maintained for an additional ten days. […] Thus, glycemia in sodium decavanadate treated rats was approximately 450 mg/dl and glycemia of hexaquis(benzylammonium) decavanadate treated rats was approximately 250 mg/dl.
(§2) Chronic in vivo efficacy of B6V10 was evaluated in streptozotocin-induced diabetic rats and in db/db mice. Streptozotocin-induced (45 mg/kg) diabetic rats were subcutaneously treated with hexaquis(benzylammonium) decavanadate (2.5 μmol/kg) (B6V10, solid squares, FIG. 8A) or with decavanadate (2.5 μmol/kg) (V10, open circles, FIG. 8A) delivered subcutaneously by osmotic minipumps implanted in the dorsal region. Diabetic rats were also sham-operated (untreated, solid diamonds, FIG. 8A). […] These experiments were repeated using an oral administration protocol. Streptozotocin-induced (45 mg/kg) diabetic rats were orally treated with hexaquis(benzylammonium) decavanadate (5 μmol/kg from day 0 to day 7 and 10 μmol/kg/day from day 7 to day 17) (B6V10, solid squares, FIG. 8B) or received decavanadate (10 μmol/kg) (V10, open circles, FIG. 8B). Nondiabetic rats were also untreated (solid triangles, FIG. 8B).

protein kinase B = protein kinase B phosphorylation in isolated rat adipocytes; format: cell-based; details: 25 μM
Protocol: Isolated fat cells were disrupted for total membrane preparation by hypo-osmotic lysis in a 20 mM HES buffer and an antiprotease and antiphosphatase cocktail as reported by Abella et al. (2003, Diabetes 52: 1004-1013). Protein concentrations were determined by the Bradford method (Bradford, 1976, Anal. Biochem. 72: 248-254) with gamma-globulin as protein concentration standard. Immunoprecipitation and immunoblot assays were performed as previously described by Abella et al. (2004, Id.) with the use of a monoclonal antiphosphotyrosine antibody for the immunoprecipitation and an anti-insulin receptor antibody for immunobloting, respectively. SDS-polyacrylamide gel electrophoresis was performed on membrane proteins following conventional procedures. Proteins were transferred to Immobilon and immunoblotting was performed as reported by Castello et al. (1994, J. Biol. Chem. 269: 5905-5912).
The mechanism of action of B6V10 was investigated in isolated rat adipocytes. Adipose cells from Wistar rats were incubated for different times in the presence of 25 μM hexaquis(benzylammonium) decavanadate (B6V10). Cells were also incubated in the presence of insulin (100 nM, 45 min), decavanadate (25 μM, 45 min) or semicarbazide (1 mM, 45 min). Subsequently, 2-deoxyglucose uptake (results shown in FIG. 7A), tyrosine phosphorylation of insulin receptor (FIG. 7B), phospho-Thr^308-protein kinase B (FIG. 7C) and phospho-Ser^473-protein kinase B (FIG. 7D) was measured. […] The phosphorylation of protein kinase B induced by B6V10 was parallel to activation of glucose transport (FIGS. 7C and 7D).
as §1

[3] = test system: streptozotocin-induced diabetic rats; assay: chronic subcutaneous (osmotic minipump) treatment, glycemia of streptozotocin (45 mg/kg) diabetic rats; format: in vivo, rat; details: 2.5 μmol/kg/day subcutaneous by osmotic minipumps, about two weeks
Protocol: Insulin concentrations were determined before and after treatment.
The effect of chronic administration of hexaquis(benzylammonium) decavanadate on glycemia from diabetic rats was determined. Thus, diabetes was induced in rats by intravenous administration of streptozotocin, which destroys the β-pancreatic cells that produce insulin.
as §2

[4] = isolated rat adipocytes, 45 min incubation

With `NCCc1ccc(F)cc1` [compound A, 2-(4-fluoro-phenyl)-ethylamine] the “stimulation of glucose transport” value (isolated rat adipocytes; [4]) was “markedly stimulated”.

In the case of `NCCCc1ccccc1` [compound B, 3-phenyl-propylamine], the “stimulation of glucose transport” value (isolated rat adipocytes; [4]) is reported as “markedly stimulated”.

`NCc1ccc(F)cc1` [compound C, 4-fluoro-benzylamine] was tested, and the “stimulation of glucose transport at low concentration compared with A and B vanadium salts” value (isolated rat adipocytes) was “higher”, the “stimulation of glucose transport” value (isolated rat adipocytes; [4]) was “markedly stimulated” and the “maximal stimulatory effect on glucose transport, compounds compared” value (isolated rat adipocytes) was “similar”.

For `NCCCCc1ccccc1` [compound D, 4-phenyl-butylamine], the “stimulation of glucose transport at low concentration compared with A and B vanadium salts” value (isolated rat adipocytes) was “higher”, the “stimulation of glucose transport” value (isolated rat adipocytes; [4]) was “markedly stimulated” and the “maximal stimulatory effect on glucose transport, compounds compared” value (isolated rat adipocytes) was “similar”.

“pentaquis(benzylammonium) decavanadate [Example B5V10]” was tested, and the “stimulatory effect on glucose transport in the presence of semicarbazide” value (“stimulatory effect … of semicarbazide” below) (isolated rat adipocytes) was “blocked”, the “stimulatory effect … of semicarbazide” value (isolated rat adipocytes; listed as pentaquis(benzylammonium) decavanadate) was “inhibited” and the “stimulation of glucose transport” value (isolated rat adipocytes; [4]) was “pronounced stimulation”.

In the case of “sodium decavanadate [reference compound]”, the “stimulation of glucose transport” value (isolated rat adipocytes; alone at 5 to 50 μM) is reported as “did not stimulate glucose transport”, the effect on glycemia [1] is reported as “did not show any change in circulating glucose” and the effect on glycemia [2] is reported as “not affected substantially”. The effect on glycemia ([2]; listed as V10) was “did not alter glycemia”, the glycemia ([2]; oral, after dosage increase to 10 μmol/kg/day) was “approximately 450 mg/dl” and the “protein kinase B phosphorylation” value (protein kinase B) was “not observed”. The effect on glycemia [3] was “did not modify substantially its glycemia” and the effect on glycemia ([3]; listed as V10) was “did not alter glycemia”.

In the case of “tetraquis(benzylammonium) decavanadate [Example B4V10]”, the “stimulatory effect … of semicarbazide” value (isolated rat adipocytes) is reported as “blocked”, the “stimulatory effect … of semicarbazide” value (isolated rat adipocytes; listed as tetraquis(benzylammonium) decavanadate) is reported as “inhibited” and the “stimulation of glucose transport” value (isolated rat adipocytes; [4]) is reported as “pronounced stimulation”.
